This assay addresses Replicase polyprotein 1ab (Severe acute respiratory syndrome coronavirus 2, UniProt P0DTD1). Description: Inhibition of 6xHis-tagged SARS-CoV-2 3CLpro using DKE as substrate preincubated for 60 mins followed by substrate addition measured after 20 mins by fluorescence based assay.

Consider `C[C@H](NC(=O)C(F)F)C(=O)N(C)[C@@H](CC1CC1)C(=O)N1C[C@]2(C[C@H]1C#N)C(=O)Nc1ccccc12`, for which the 50% inhibitory concentration (IC50) is 21.2 nM. In turn, `C[C@H](NC(=O)C(F)(F)F)C(=O)N(C)[C@@H](CC1CC1)C(=O)N1C[C@]2(C[C@H]1C#N)C(=O)Nc1ccccc12` yielded an IC50 of 25.5 nM. Then `CN(C)CCOc1c(Cl)cc([C@H](NC(=O)CF)C(=O)N2C[C@H]3[C@@H]([C@H]2C(=O)N[C@H](C#N)C[C@@H]2CCNC2=O)C3(C)C)cc1Cl`, with 230 nM; and `CC(C)C[C@@H](C(=O)N1C[C@]2(C[C@H]1C#N)C(=O)Nc1ccccc12)N(C)C(=O)[C@H](C)NC(=O)C(C)C`, with 29.8 nM; and `CC(C)C[C@@H](C(=O)N1C[C@]2(C[C@H]1C#N)C(=O)Nc1ccccc12)N(C)C(=O)[C@H](C)NC(=O)C(C)(C)F`, with 24.3 nM. Compound `CC(=O)N[C@H](C(=O)N1C[C@H]2[C@@H]([C@H]1C(=O)N[C@H](C#N)C[C@@H]1CCNC1=O)C2(C)C)c1cc(Cl)c(OCCN(C)C)c(Cl)c1` yielded an IC50 of 28200 nM.
